The values below come from US20180179499A1, “BIOBASED PRODUCTION OF FUNCTIONALIZED ALPHA-SUBSTITUTED ACRYLATES AND C4-DICARBOXYLATES” (BIOAMBER INC., priority 2015, published 2018).

Series [1] concerns E. coli. Kind of series: Host tolerance: growth rate with compound versus unchallenged cells. To be noted: pH 8, 30° C. Type of series: cell-based. The method, then:
Two eukaryotic strains, I. orientalis and S. cerevisiae, were tested at pH 3 and pH 5. Three bacterial strains were tested using their individual optimal conditions. E. coli and C. glutamicum were tested at pH 8 and 30° C., and B. firmus was tested at pH 9 and 37° C. I. orientalis was grown in defined yeast media consisting of 5 g/L ammonium sulfate, 0.5 g/L magnesium sulfate heptahydrate, 3 g/L potassium phosphate monobasic, 10 g/L dextrose, 1 mL/L of 10% glycerol stock, 1 mL/L of 1000× trace. The 1000× trace stock solution contains 4 g/L ZnSO4.7H2O, 2 g/L FeSO4.7H2O, 1 g/L MnSO4.H2O, 0.2 g/L CuSO4.5H2O, and 0.8 mL/L H2SO4. […]
Time points were taken over a period of at least 8 hours and up to 24 hours to calculate the rate of growth. Specific growth rate was determined by plotting the natural logarithm of cell number against time. Tolerance was determined by growth rate of cells in the presence of the compound as compared to in the absence of the compound. […]
(§1) Time points were taken over a period of at least 8 hours and up to 24 hours to calculate the rate of growth. Specific growth rate was determined by plotting the natural logarithm of cell number against time. Tolerance was determined by growth rate of cells in the presence of the compound as compared to in the absence of the compound.

Series [2] concerns potential bacterial hosts (E. coli, C. glutamicum, B. firmus, B. cohnii). Kind of series: Tolerance of potential bacterial hosts: highest concentration with growth observed. The conditions noted are these: Table F, max conc tested 100 g/L. Type of series: cell-based. The method, then:
(§2) Two eukaryotic strains, I. orientalis and S. cerevisiae, were tested at pH 3 and pH 5. Three bacterial strains were tested using their individual optimal conditions. E. coli and C. glutamicum were tested at pH 8 and 30° C., and B. firmus was tested at pH 9 and 37° C. I. orientalis was grown in defined yeast media consisting of 5 g/L ammonium sulfate, 0.5 g/L magnesium sulfate heptahydrate, 3 g/L potassium phosphate monobasic, 10 g/L dextrose, 1 mL/L of 10% glycerol stock, 1 mL/L of 1000× trace. The 1000× trace stock solution contains 4 g/L ZnSO4.7H2O, 2 g/L FeSO4.7H2O, 1 g/L MnSO4.H2O, 0.2 g/L CuSO4.5H2O, and 0.8 mL/L H2SO4. S. cerevisiae was grown in buffered defined dextrose media consisting of 50 g/L dextrose, 5 g/L yeast extract, and 40 mL/L 25× DM salts. The 25× DM salt stock solution contains 125 g/L ammonium sulfate, 12.5 g/L magnesium sulfate heptahydrate, 75 g/L potassium phosphate monobasic, and 787.5 g/L water. The bacterial strains were grown in standard LB media consisting of 10 g/L bacto-tryptone, 5 g/L yeast extract, 10 g/L NaCl, and 20 g/L dextrose with addition of 20 g/L glucose.
as §1
(§3) Two eukaryotic strains, I. orientalis and S. cerevisiae, were tested for tolerance to the selected compounds at pH 3 and pH 5. The bacterial strains were grown at their individual optimal conditions, E coli and C. glutamicum at pH 8 and 30° C., and B. firmus and B. cohnii at pH 9 and 37° C. I. orientalis was grown in defined yeast media consisting of 5 g/L ammonium sulfate, 0.5 g/L magnesium sulfate heptahydrate, 3 g/L potassium phosphate monobasic, 10 g/L dextrose, 1 mL/L of 10% glycerol stock, 1 mL/L of 1000× trace. The 1000× trace stock solution contains 4 g/L ZnSO4.7H2O, 2 g/L FeSO4.7H2O, 1 g/L MnSO4.H2O, 0.2 g/L CuSO4.5H2O, and 0.8 mL/L H2SO4. S. cerevisiae was grown in buffered defined dextrose media consisting of 50 g/L dextrose, 5 g/L yeast extract, and 40 mL/L 25×DM salts. The 25×DM salt stock solution contains 125 g/L ammonium sulfate, 12.5 g/L magnesium sulfate heptahydrate, 75 g/L potassium phosphate monobasic, and 787.5 g/L water. The bacterial strains were grown in standard LB media consisting of 10 g/L bacto-tryptone, 5 g/L yeast extract, 10 g/L NaCl, and 20 g/L dextrose with addition of 20 g/L glucose.
as §1

The test system of series [3] is potential yeast hosts (I. orientalis, S. cerevisiae). Kind of series: Tolerance of potential yeast hosts: maximum concentration in which growth was detected. To be noted: Table E. Type of series: cell-based. The method, then:
as §2, §1, §3, §1

Series [4] relates to C. glutamicum. Description: Host tolerance: growth rate with compound versus unchallenged cells. Type of series: cell-based. The conditions noted are these: pH 8, 30° C. The method, then:
(§4) Potential hosts for the described pathways to alpha substituted C4 dicarboxylic acids were identified by determining the tolerance to functionalized alpha substituted dicarboxylic acids as shown in FIG. 2. Specific functionalized alpha substituted C4 dicarboxylic acid compounds were selected to assess tolerance of bacterial and eukaryotic hosts.
as §2
(§5) Time points were taken over a period of at least 8 hours and up to 24 hours to calculate the rate of growth. Specific growth rate was determined by plotting the natural logarithm of cell number against time. Tolerance was determined by growth rate of cells in the presence of the compound as compared to in the absence of the compound. The scoring method is indicated in Table D. The results of the tolerance studies are shown in Tables E and F. The second column from the left denotes the maximum concentration of the indicated compound in which growth was detected. […] I. orientalis is also a suitable host for most of the compounds.
(§6) Potential hosts for the described pathways to alpha substituted acrylic acid were identified by determining the tolerance to functionalized alpha substituted acrylic acid end-products as shown generally in FIGS. 1 and 3 and more specifically in FIGS. 9 and 10. […]
(§7) Time points were taken over a period of at least 8 hours and up to 24 hours to calculate the rate of growth. Specific growth rate was determined by plotting the natural logarithm of cell number against time. […]

The test system of series [5] is B. firmus. The description is as above. Type of series: cell-based. The conditions noted are these: pH 9, 37° C. How it is done: as §4, §2, §5, §6, §7
For series [6], the system named is E coli. Description: Host tolerance to hydroxymethyl-3HP, relative OD after 24 hours. Type of series: cell-based. The conditions noted are these: 24 hours incubation at 30° C. The method, then:
(§8) FIG. 33(a) presents comparative tolerance data of potential host organisms to 3-hydroxymethyl 3-hydroxypropionic acid (HM3HP) where Km=K. marxianus, Sc=S. cerevisiae, Ec=E. coli (from Example 17). Within each grouping, the right bar represents Ec, the left bar represents Km, and the middle bar represents Sc.
as §3
(§9) In one embodiment, alpha substituted 3-hydroxypropionic acid is produced by the host organism. In a specific embodiment, alpha hydroxymethyl 3-hydroxypropionic acid is produced by the host organism. To evaluate host organisms, the protocol described above was used. The relative OD at the end of 24 hours incubation at 30° C. was compared for Kluyveromyces marxianus, S. cerevisiae, and E coli in the presence of different amounts of hydroxymethyl-3HP (FIG. 33(a)).

For series [7], the system named is S. cerevisiae. Described as above. The conditions noted are these: 24 hours incubation at 30° C. It is filed as cell-based. The method, then: as §8, §3, §9
Series [8] has as its system Kluyveromyces marxianus. Described as above. The conditions noted are these: K. marxianus, 24 hours incubation at 30° C. Type of series: cell-based. The method, then: as §8, §3, §9
A short description of series [9]: Dehydration of HM3HP to HMA at different temperature and pH (NMR). Type of series: physicochemical. The conditions noted are these: overnight. The method, then: In the case of the microorganism producing alpha-substituted 3-hydroxymethyl acid, such as in Examples 9 and 21, this compound is dehydrated to alpha-substituted acrylic acid. In one embodiment, alpha-hydroxymethyl 3-hydroxypropionic acid (HM3HP) is dehydrated to alpha-hydroxymethyl acrylic acid (HMA). A known amount of HM3HP was dissolved into buffered solution. […] Samples were incubated at −20° C., 30° C., or 70° C. overnight. NMR analysis was used to measure the amount of HM3HP that was dehydrated to HMA. […] The pH of the solution had more effect on conversion to HMA than did changes in temperature.

Series [10] can be described thus: Dehydratase assay: lysate incubated with itatartaric acid, HPLC/NMR. It is filed as biochemical. To be noted: knockout E coli strains (acnA or acnB deleted), lysate with ITT overnight at 30° C., HPLC. How it is done:
E. coli optimized genes encoding dehydratases are synthesized and cloned into pTrcHisA (Life Technologies (formerly Invitrogen)). Dehydratase candidates are found in Table I. Plasmids containing the optimized synthase genes are transformed into BL21 E. coli cells. Empty plasmid pTrcHisA are also transformed as a negative control. […]. Flasks are incubated at 30° C. at 250 rpm shaking for 2 hours, then protein production is induced with 0.2 mM IPTG and incubated for 4 more hours at 30° C. while shaking. Cells are harvested by centrifugation and pellets are stored at −80° C.
Cells are lysed using mechanical disruption using a BeadBeater (BopSpec products, Bartlesville, Okla.) using the manufacturer's instructions. […] Protein concentrations of the resulting clarified lysates are measured via BioRad total Protein assay using the manufacturer's instructions. […]
The reaction mixture contains 100 mM TAPS buffer pH 6.8, 100 mM KCl, 100 mM substrate alpha (hydroxymethyl) maleic acid. […] The reactions in these microplates are monitored at 235 nm. Readings are taken every 9 seconds for 10 minutes and the data is used to calculate activities of each enzyme. Background absorbance is measured by the same reaction with no substrate present are subtracted. […]
The lysates were incubated with or without a known amount of synthesized ITT overnight at 30° C., and then the samples were analyzed by HPLC. […]

For the molecule `O=C(O)CC1(C(=O)O)CCC(=O)O1` (centres unmarked) [Homocitrate lactone], the entries for the “Tolerance score (percent growth rate as compared to unchallenged cells)” value in series [1], in [4] and in [5] were “+++ (100-90%)”, “− (10-0%)” and “− (10-0%)”, respectively. Moreover, in series [2], the “Highest conc with growth observed” value is 100 g/L. Besides, in [3], the “Max conc (maximum concentration in which growth was detected)” value came to 100 g/L.
`O=C(O)CC[C@@](O)(CC(=O)O)C(=O)O` [Homocitrate]: the figures for the “Tolerance score (percent growth rate as compared to unchallenged cells)” value in series [1], in [4] and in series [5] were “− (10-0%)”, “+++ (100-90%)” and “− (10-0%)”, respectively. Moreover, in [2], the “Highest conc with growth observed” value is recorded as 50 g/L. Also, the “Max conc (maximum concentration in which growth was detected)” value in [3] worked out at 100 g/L.
Regarding `O=C(O)C(CO)CO` [alpha-hydroxymethyl 3-hydroxypropionic acid], the Tolerated concentration entry in series [6], in series [7] and in [8] was “at least 60 g/L” each time. For the same molecule, the “Relative HMA levels” value came to 0.00 in series [9] (pH 3, 30 C.); 0.00 in [9] (pH 3, 70 C.); 0.00 in series [9] (pH 3, −20 C.); 0.13 in series [9] (pH 7, 30 C.); 0.18 in [9] (pH 7, 70 C.); 0.13 in [9] (pH 7, −20 C.). Besides, the “Relative HMA levels” value in [9] (pH 10, 30 C.) came out at 1.18; in series [9] (pH 10, 70 C.), 1.00; in series [9] (pH 10, −20 C.), 0.81.

B1: acnA: E coli aconitase acnA, endogenous dehydratase, GenBank CAA42834 (protein, UniProt P25516 2-891, looked up)
Aconitate hydratase A: SSTLREASKDTLQAKDKTYHYYSLPLAAKSLGDITRLPKSLKVLLENLLRWQDGNSVTEEDIHALAGWLKNAHADREIAYRPARVLMQDFTGVPAVVDLAAMREAVKRLGGDTAKVNPLSPVDLVIDHSVTVDRFGDDEAFEENVRLEMERNHERYVFLKWGKQAFSRFSVVPPGTGICHQVNLEYLGKAVWSELQDGEWIAYPDTLVGTDSHTTMINGLGVLGWGVGGIEAEAAMLGQPVSMLIPDVVGFKLTGKLREGITATDLVLTVTQMLRKHGVVGKFVEFYGDGLDSLPLADRATIANMSPEYGATCGFFPIDAVTLDYMRLSGRSEDQVELVEKYAKAQGMWRNPGDEPIFTSTLELDMNDVEASLAGPKRPQDRVALPDVPKAFAASNELEVNATHKDRQPVDYVMNGHQYQLPDGAVVIAAITSCTNTSNPSVLMAAGLLAKKAVTLGLKRQPWVKASLAPGSKVVSDYLAKAKLTPYLDELGFNLVGYGCTTCIGNSGPLPDPIETAIKKSDLTVGAVLSGNRNFEGRIHPLVKTNWLASPPLVVAYALAGNMNINLASEPIGHDRKGDPVYLKDIWPSAQEIARAVEQVSTEMFRKEYAEVFEGTAEWKGINVTRSDTYGWQEDSTYIRLSPFFDEMQATPAPVEDIHGARILAMLGDSVTTDHISPAGSIKPDSPAGRYLQGRGVERKDFNSYGSRRGNHEVMMRGTFANIRIRNEMVPGVEGGMTRHLPDSDVVSIYDAAMRYKQEQTPLAVIAGKEYGSGSSRDWAAKGPRLLGIRVVIAESFERIHRSNLIGMGILPLEFPQGVTRKTLGLTGEEKIDIGDLQNLQPGATVPVTLTRADGSQEVVPCRCRIDTATELTYYQNDGILHYVIRNMLK
Consider B1, for which the “Formation of ITT dehydration product” value in series [10] is listed as “capable of producing the observed dehydration product”.
